Test results taken from US4086350A, “Pharmaceutical compositions and method of producing anti-psychotic activity without extrapyramidal symptoms” (priority 1975, dated 1978).
Where two headings read alike, the source gives them in different places.

Key:
[1] = test system: striatal dopamine receptors; assay: Antagonism of amphetamine-induced rotation in rats with unilateral substantia nigra lesions (Ungerstedt); type: in vivo, rat; details: i.p.
Description: There is evidence that antipsychotic drugs cause EPS by interfering with neurotransmission in a nigrostriatal dopaminergic pathway. It is thought that they block dopamine receptors in the neostriatum. Therefore, the ability of a drug to block striatal dopamine receptors is a measure of its EPS liability.
To assess the potency of drugs in blocking striatal dopamine receptors a procedure was used which was developed by Ungerstedt [Ungerstedt and Arbuthnott, Brain Res. 24 485 (1970); Ungerstedt, Acta physiol. scand., Suppl. 367, 49 (1971)] using rats with unilateral lesions of the substantia nigra induced by injection of 6-hydroxydopamine. This treatment causes degeneration of the nigrostriatal dopaminergic pathway accompanied by a marked decrease in the dopamine content of the neostriatum on the side of the lesion. Animals with this lesion develop postural and motor asymmetries which are altered by drugs which affect dopaminergic activity. Amphetamine, which releases dopmine and norepinephrine from catecholaminergic neurons, causes these rats to rotate unidirectionally toward the side of the lesion. Since there is a much larger amount of dopamine to be released by amphetamine from the intact nigrostriatal neurons on the non-lesioned side than from those remaining on the lesioned side, the rotational behavior is apparently due to the preponderance of activation of striatal dopamine receptors on the intact side. The ability of a drug to antagonize the rotational behavior is therefore a measure of its ability to block striatal dopamine receptors and is indicative of its potential to produce EPS.
(§1) To predict the potential ability of a drug to cause EPS, the ratio of its ED50 (i.p.) for antagonism of amphetamine-induced rotation to its ED50 (i.p.) for blockade of shock avoidance acquisition in the rat, a procedure for assessing antipsychotic activity, (R/A ratio) is calculated.

[2] = test system: shock avoidance acquisition in the rat; assay: Antagonism of shock avoidance acquisition in the rat (antipsychotic activity); type: in vivo; details: ip, read-out: Antagonism of Avoidance Acquisition, Rats, ED50 (A)
Experimental: as §1

[3] = test system: amphetamine-induced rotation vs. avoidance acquisition; assay: R/A ratio: ED50 amphetamine-induced rotation / ED50 avoidance acquisition; type: in vivo, rat
Experimental: as §1

[4] = piperidylidene derivatives (Table II)
[5] = rats, i.p., piperidylidene derivatives (Table II)
[6] = ratio of i.p. ED50 values in rats, piperidylidene derivatives (Table II)
[7] = ratio of i.p. ED50 values in rats, clinically established antipsychotics (Table I)
[8] = clinically established antipsychotics (Table I)

Row | SMILES | Antagonism of Amphetamine-induced Rotation, Rats, ED50 (R) [1, 4] [mg/kg] | ED50 [2, 5] [mg/kg] | R/A ratio [3, 6] | R/A ratio [3, 7] | Antagonism of Amphetamine-induced Rotation, Rats, ED50 (R) [1, 8] [mg/kg] | ED50 [2] [mg/kg] | R/A ratio ([3]; rat, in vivo, ip)
1 | OCCCN1CCC(=C2c3ccccc3Oc3ccc(Cl)cc32)CC1 [XXX, 4-(2-chloro-9-xanthenylidene)-1-(3-hydroxypropyl)-piperidine] | 0.78 | 0.2 | 3.9 |  |  |  | 
2 | Brc1ccc2c(c1)C(=C1CCNCC1)c1ccccc1O2 [XXV, 4-(2-bromo-9-xanthenylidene)-piperidine] | 4.0 | 0.6 | 6.7 |  |  |  | 
3 | CN1CCN(CCCN2c3ccccc3Sc3ccc(C(F)(F)F)cc32)CC1 [Trifluoperazine, reference compound] |  |  |  | 0.46 |  |  | 
4 | Clc1ccc2c(c1)C(=C1CCNCC1)c1ccccc1O2 [XX, 4-(2-chloro-9-xanthenylidene)-piperidine] | 8.1 | 1.7 | 4.8 |  |  |  | 
5 | CN1CCC(=C2c3ccccc3Sc3cc(F)ccc32)CC1 [XIII, 4-(3-fluoro-9-thioxanthenylidene)-1-methylpiperidine] | 17.7 | 3 | 5.8 |  |  |  | 
6 | CCCN1CCC(=C2c3ccccc3Oc3ccc(Cl)cc32)CC1 [XXIII, 4-(2-chloro-9-xanthenylidene)-1-n-propylpiperidine] | 2.4 | 0.6 | 4.0 |  |  |  | 
7 | OCCN1CCC(=C2c3ccccc3Oc3ccc(Cl)cc32)CC1 [XXII, 4-(2-chloro-9-xanthenylidene)-1-(β-hydroxyethyl)-piperidine] | 1.3 | 0.2 | 6.5 |  |  |  | 
8 | OCCN1CCC(=C2c3ccccc3Oc3ccc(Br)cc32)CC1 [XXVI, 4-(2-bromo-9-xanthenylidene)-1-(β-hydroxyethyl)-piperidine] | 2.1 | 0.6 | 3.5 |  |  |  | 
9 | CN1CCC(=C2c3ccc(Cl)cc3Oc3ccc(F)cc32)CC1 [XVI, 4-(6-chloro-2-fluoro-9-xanthenylidene)-1-methylpiperidine] | 1.12 | 0.15 | 7.5 |  |  |  | 
10 | CN1CCC(=C2c3ccccc3Sc3ccc(C#N)cc32)CC1 [XXVIII, 4-(2-cyano-9-thioxanthenylidene)-1-methylpiperidine] | 0.67 | 0.16 | 4.0 |  |  |  | 
11 | CN1CCC(=C2c3ccccc3COc3cc(Cl)ccc32)CC1 [XXXIII, 4-(3-chloro-11(6H)-dibenz[b,e]oxepinylidene)-1-methylpiperidine] | > 25 | 7.5 | > 3 |  |  |  | 
12 | CN1CCC(=C2c3ccccc3Oc3ccc(Cl)cc32)CC1 [IV, 4-(2-chloro-9-xanthenylidene)-1-methylpiperidine] | 2.8 | 0.23 | 12.2 |  |  |  | 
13 | CN1CCC(=C2c3ccccc3Sc3ccc(Br)cc32)CC1 [XIV, 4-(2-bromo-9-thioxanthenylidene)-1-methylpiperidine] | 2.7 | 0.3 | 9.0 |  |  |  | 
14 | O=C(CCCN1CCC(O)(c2ccc(Cl)cc2)CC1)c1ccc(F)cc1 [Haloperidol, reference compound] |  |  |  | 0.31 | 0.05 |  | 
15 | CN1CCC(=C2c3ccc(F)cc3Sc3ccc(F)cc32)CC1 [XXIX, 4-(2,6-difluoro-9-thioxanthenylidene)-1-methylpiperidine] | 2.4 | 0.5 | 4.8 |  |  |  | 
16 | CN1CCC(=C2c3ccc(Cl)cc3Sc3ccc(F)cc32)CC1 [XV, 4-(6-chloro-2-fluoro-9-thioxanthenylidene)-1-methylpiperidine] | 8.7 | 0.6 | 14.5 |  |  |  | 
17 | CN1CCC(=C2c3ccccc3Oc3ccc(F)cc32)CC1 [VIII, 4-(2-fluoro-9-xanthenylidene)-1-methylpiperidine] | 5.6 | 0.71 | 7.9 |  |  |  | 
18 | CCN1CCC(=C2c3ccccc3Oc3ccc(Cl)cc32)CC1 [XXI, 4-(2-chloro-9-xanthenylidene)-1-ethylpiperidine] | 1.8 | 0.5 | 3.6 |  |  |  | 

Row | SMILES | Antagonism of Amphetamine-induced Rotation, Rats, ED50 (R) [1, 4] [mg/kg] | ED50 [2, 5] [mg/kg] | R/A ratio [3, 6] | R/A ratio [3, 7] | Antagonism of Amphetamine-induced Rotation, Rats, ED50 (R) [1, 8] [mg/kg] | ED50 [2] [mg/kg] | R/A ratio ([3]; rat, in vivo, ip)
19 | CN1CCC(=C2c3ccccc3Sc3ccc(Cl)cc32)CC1 [I, 4-(2-chloro-9-thioxanthenylidene)-1-methylpiperidine] | 14.2 |  | 20.3 |  |  | 0.7 | 
20 | CN1CCC(=C2c3ccccc3Oc3ccc(C(F)(F)F)cc32)CC1 [VI, 1-methyl-4-(2-trifluoromethyl-9-xanthenylidene)-piperidine] | 0.26 | 0.07 | 3.7 |  |  |  | 
21 | CN(C)CCCN1c2ccccc2Sc2ccc(Cl)cc21 [Chlorpromazine, reference compound] |  |  |  | 1.3 | 2.0 |  | 
22 | CSc1ccc2c(c1)C(=C1CCN(C)CC1)c1ccccc1O2 [V, 1-methyl-4-(2-methylthio-9-xanthenylidene)piperidine] | 1.8 | 0.6 | 3.0 |  |  |  | 
23 | Clc1ccc2c(c1)C(=C1CCN(CC3CCC3)CC1)c1ccccc1S2 [XIX, 4-(2-chloro-9-thioxanthenylidene)-1-cyclobutylmethylpiperidine] | 1.9 | 0.5 |  |  |  |  | 3.8
24 | CN1CCC(=C2c3ccccc3Oc3ccc(Br)cc32)CC1 [X, 4-(2-bromo-9-xanthenylidene)-1-methylpiperidine] | 1.6 | 0.3 | 5.3 |  |  |  | 
25 | CN1CCC(=C2c3ccccc3COc3ccc(Cl)cc32)CC1 [VII, 4-(2-chloro-11(6H)-dibenz[b,e]oxepinylidene)-1-methylpiperidine] | 9.4 | 1.7 | 5.5 |  |  |  | 
26 | CN1CCC(=C2c3ccccc3Sc3cc(Cl)ccc32)CC1 [III, 4-(3-chloro-9-thioxanthenylidene)-1-methylpiperidine] | 30.8 | 5.3 | 5.8 |  |  |  | 
27 | CCN1CCC(=C2c3ccccc3Sc3ccc(Cl)cc32)CC1 [XVII, 4-(2-chloro-9-thioxanthenylidene)-1-ethylpiperidine] | 5.0 | 0.5 | 10.0 |  |  |  | 
28 | OCCN1CCC(=C2c3ccccc3Sc3ccc(Cl)cc32)CC1 [IX, 4-(2-chloro-9-thioxanthenylidene)-1-(β-hydroxyethyl)piperidine] | 1.22 | 0.26 | 4.7 |  |  |  | 
29 | CN1CCC(=C2c3ccccc3Oc3ccc(C#N)cc32)CC1 [XI, 4-(2-cyano-9-xanthenylidene)-1-methylpiperidine] | 0.29 | 0.09 | 3.2 |  |  |  | 
30 | CSc1ccc2c(c1)C(=C1CCN(C)CC1)c1ccccc1S2 [II, 1-methyl-4-(2-methylthio-9-thioxanthenylidene)-piperidine] | 3.7 |  | 18.5 |  |  | 0.2 | 
31 | CN1CCC(=C2c3cc(Cl)ccc3COc3ccccc32)CC1 [XXVII, 4-(9-chloro-11(6H)-dibenz[b,e]oxepinylidene)-1-methylpiperidine] | > 24 | 1.6 | > 15 |  |  |  | 
32 | CCCCN1CCC(=C2c3ccccc3Sc3ccc(Cl)cc32)CC1 [XVIII, 4-(2-chloro-9-thioxanthenylidene)-1-n-butylpiperidine] | 3.1 | 0.94 | 3.3 |  |  |  | 
33 | Clc1ccc2c(c1)C(=C1CCN(CC3CCC3)CC1)c1ccccc1O2 [XXIV, 4-(2-chloro-9-xanthenylidene)-1-cyclobutylmethylpiperidine] | 1.6 | 0.5 | 3.2 |  |  |  | 
34 | CN1CCC(=C2c3ccccc3Sc3ccc(F)cc32)CC1 [XII, 4-(2-fluoro-9-thioxanthenylidene)-1-methylpiperidine] | 5.5 | 1.8 | 3.1 |  |  |  | 
35 | O=c1[nH]c2ccccc2n1C1CCN(CCCC(c2ccc(F)cc2)c2ccc(F)cc2)CC1 [Pimozide, reference compound] |  |  |  | 0.30 | 0.08 |  | 
